According to patent publication US6140368A, “Naphthols useful in antiviral methods” (The Regents of the University of California, priority 1998, dated 2000):

target: HIV reverse transcriptase (Human immunodeficiency virus type 1 group M subtype B, UniProt P03366); test: Reverse transcriptase scintillation proximity assay (Example 4, Table 2); assay type: biochemical; details: 0.05 h, 10 μM inhibitor; relative to dimethyl sulfoxide = 100%; read-out: % RT activity remaining at 10 μM
Protocol: Reverse transcriptase ("RT") activity is measured using a scintillation proximity assay kit available from Amersham Life Sciences, Inc., which uses a biotin/streptavidin bead capture system. RNA-dependent polymerase activity is measured using purified […] and a synthetic 17mer/50mer RNA-DNA template-primer containing biotin at the 5' end of the DNA. The template-primer, buffer, dNTP, and inhibitor are incubated for 10 minutes at 37° C. before the RT is added. The final 100 μl reaction mixture contains: 39 nm of template primer, buffer (40 mM tris HCl at pH 8.0, 10 mM MgCl2, 60 mM KCl, 10 mM dithiothreitol); 75 nM of each dNTP except dTTP; 25 nM dTTP and 35 nM tritium labeled d*TTP; 10 μM inhibitor; and 1.0-2.0 μg of RT. After three minute incubation, the reaction is quenched with 40 μl of 0.56M EDTA. Then 10 μl of streptavidin SPA beads (in suspension) are added and incubated at 37° C. for 10 minutes. Finally, 850 μl of a buffer containing 10 mM Tris HCl pH 7.4 and 0.15M NaCl is added. The signal is produced by biotinylated polymers incorporating d*TTP binding to the streptavidin beads which stimulate the scintillant. The amount of d*TTP incorporated in the polymer is measured with a scintillation counter.
Compounds showing good inhibition will give a low number of counts/min (cpm). This number is related to a standard, dimethyl sulfoxide, which is given an arbitrary 100% relative activity. All cpm data in a single run are given a percent of this standard.

Point of comparison: `O=C(Nc1ccc2c(O)cccc2c1)Nc1ccc2c(O)cc(S(=O)(=O)O)cc2c1` [Compound 6], remaining activity at 10 µM 84%. Against it:
- O=C(Nc1ccc2ccccc2c1)Nc1ccc2c(O)cc(S(=O)(=O)O)cc2c1 [Compound 13] — lower, 82%
- O=C(O)Cc1ccc(N=Nc2c(S(=O)(=O)O)cc3cc(NC(=O)c4cc(O)cc(C(=O)Nc5ccc6c(O)c(N=Nc7ccc(CC(=O)O)cc7)c(S(=O)(=O)O)cc6c5)n4)ccc3c2O)cc1 [Compound 147] — lower, 0.3%
- O=C(O)CCc1ccc(N=Nc2c(S(=O)(=O)O)cc3cc(NC(=O)c4ccc(C(=O)Nc5ccc6c(O)c(N=Nc7ccc(CCC(=O)O)cc7)c(S(=O)(=O)O)cc6c5)cc4)ccc3c2O)cc1 [Compound 164] — lower, 0.15%
- O=C(Nc1ccc2c(O)c(N=Nc3cc(F)c(F)c(C(=O)O)c3F)c(S(=O)(=O)O)cc2c1)c1ccc(C(=O)Nc2ccc3c(O)c(N=Nc4cc(F)c(F)c(C(=O)O)c4F)c(S(=O)(=O)O)cc3c2)cc1 [Compound 171] — lower, 0.15%
- COC(=O)c1cc(NC(=O)Nc2ccc3cc(S(=O)(=O)O)cc(O)c3c2)cc(C(=O)OC)c1 [Compound 27] — lower, 80%
- O=C(Nc1ccc2cc(S(=O)(=O)O)cc(O)c2c1)Nc1ccc2cc(S(=O)(=O)O)cc(O)c2c1 [Compound 77] — the same, 84%
- O=C(Nc1ccc2c(O)cc(S(=O)(=O)O)cc2c1)Nc1ccc2cc(S(=O)(=O)O)cc(O)c2c1 [Compound 9] — lower, 75%
- COc1cc(N=Nc2c(S(=O)(=O)O)cc3cc(NC(=O)c4cccc(C(=O)Nc5ccc6c(O)c(N=Nc7cc(OC)c(OC)c(OC)c7C(=O)O)c(S(=O)(=O)O)cc6c5)n4)ccc3c2O)c(C(=O)O)c(OC)c1OC [Compound 128] — lower, 5%
- O=C(O)CCCCCc1ccc(N=Nc2c(S(=O)(=O)O)cc3cc(NC(=O)c4cccc(C(=O)Nc5ccc6c(O)c(N=Nc7ccc(CCCCCC(=O)O)cc7)c(S(=O)(=O)O)cc6c5)n4)ccc3c2O)cc1 [Compound 121] — lower, 0.16%
- Cc1cc(C(=O)O)ccc1N=Nc1c(S(=O)(=O)O)cc2cc(NC(=O)c3cccc(C(=O)Nc4ccc5c(O)c(N=Nc6ccc(C(=O)O)cc6C)c(S(=O)(=O)O)cc5c4)n3)ccc2c1O [Compound 130] — lower, 0.35%
- O=C(O)/C=C/c1ccc(N=Nc2c(S(=O)(=O)O)cc3cc(NC(=O)c4cccc(C(=O)Nc5ccc6c(O)c(N=Nc7ccc(/C=C/C(=O)O)cc7)c(S(=O)(=O)O)cc6c5)n4)ccc3c2O)cc1 [Compound 123] — lower, 0.2%
- COC(=O)c1ccccc1NC(=O)Nc1ccc2cc(S(=O)(=O)O)cc(O)c2c1 [Compound 24] — higher, 90%
- O=C(O)c1cccc(N=Nc2c(S(=O)(=O)O)cc3cc(NC(=O)c4cc(O)cc(C(=O)Nc5ccc6c(O)c(N=Nc7cccc(C(=O)O)c7)c(S(=O)(=O)O)cc6c5)n4)ccc3c2O)c1 [Compound 150] — lower, 0.6%
- Cc1cc(C(=O)O)ccc1N=Nc1c(S(=O)(=O)O)cc2cc(NC(=O)c3ccc(C(=O)Nc4ccc5c(O)c(N=Nc6ccc(C(=O)O)cc6C)c(S(=O)(=O)O)cc5c4)cc3)ccc2c1O [Compound 168] — lower, 0.5%
- O=C(O)/C=C/c1ccc(N=Nc2c(S(=O)(=O)O)cc3ccc(Nc4c(Nc5ccc6cc(S(=O)(=O)O)c(N=Nc7ccc(/C=C/C(=O)O)cc7)c(O)c6c5)c(=O)c4=O)cc3c2O)cc1 [Compound 199] — lower, 1.2%
- O=C(Nc1ccc2c(O)cc(S(=O)(=O)O)cc2c1)c1ccccc1 [Compound 21] — higher, 108%
- O=C(O)Cc1ccc(N=Nc2c(S(=O)(=O)O)cc3cc(NC(=O)c4ccc(C(=O)Nc5ccc6c(O)c(N=Nc7ccc(CC(=O)O)cc7)c(S(=O)(=O)O)cc6c5)cc4)ccc3c2O)cc1 [Compound 163] — lower, 0.1%
- O=C(O)CCCc1ccc(N=Nc2c(S(=O)(=O)O)cc3cc(Nc4c(Nc5ccc6c(O)c(N=Nc7ccc(CCCC(=O)O)cc7)c(S(=O)(=O)O)cc6c5)c(=O)c4=O)ccc3c2O)cc1 [Compound 189] — lower, 1%
- CCOC(=O)c1cccc(NC(=O)Nc2ccc3cc(S(=O)(=O)O)cc(O)c3c2)c1 [Compound 75] — higher, 85%
- COc1cc(N=Nc2c(S(=O)(=O)O)cc3cc(NC(=O)c4ccc(C(=O)Nc5ccc6c(O)c(N=Nc7cc(OC)c(OC)cc7C(=O)O)c(S(=O)(=O)O)cc6c5)cc4)ccc3c2O)c(C(=O)O)cc1OC [Compound 179] — lower, 7.5%
- COc1cc(N=Nc2c(S(=O)(=O)O)cc3cc(NC(=O)c4cc(O)cc(C(=O)Nc5ccc6c(O)c(N=Nc7cc(OC)c(OC)c(OC)c7C(=O)O)c(S(=O)(=O)O)cc6c5)n4)ccc3c2O)c(C(=O)O)c(OC)c1OC [Compound 156] — lower, 15%
- O=C(O)CCc1ccc(N=Nc2c(S(=O)(=O)O)cc3cc(NC(=O)c4cc(=O)cc(C(=O)Nc5ccc6c(O)c(N=Nc7ccc(CCC(=O)O)cc7)c(S(=O)(=O)O)cc6c5)o4)ccc3c2O)cc1 [Compound 134] — lower, 0.25%
- Nc1cccc2c(NC(=O)Nc3ccc4c(O)cc(S(=O)(=O)O)cc4c3)cccc12 [Compound 19] — lower, 80%
- Cc1cc2nc(N=Nc3c(S(=O)(=O)O)cc4cc(NC(=O)c5ccc(C(=O)Nc6ccc7c(O)c(N=Nc8nc9cc(C)c(C)cc9[nH]8)c(S(=O)(=O)O)cc7c6)cc5)ccc4c3O)[nH]c2cc1C [Compound 183] — lower, 36%
- O=C1c2ccccc2C(=O)N1c1ccc2c(O)cc(S(=O)(=O)O)cc2c1 [Compound 23] — higher, 100%
- Cc1ccc(CO)cc1N=Nc1c(S(=O)(=O)O)cc2cc(NC(=O)c3ccc(C(=O)Nc4ccc5c(O)c(N=Nc6cc(CO)ccc6C)c(S(=O)(=O)O)cc5c4)cc3)ccc2c1O [Compound 180] — lower, 45%
- O=C(O)Cc1ccc(N=Nc2c(S(=O)(=O)O)cc3cc(NC(=O)c4cccc(C(=O)Nc5ccc6c(O)c(N=Nc7ccc(CC(=O)O)cc7)c(S(=O)(=O)O)cc6c5)n4)ccc3c2O)cc1 [Compound 119] — lower, 0.29%
- O=C(O)c1cccc(N=Nc2c(S(=O)(=O)O)cc3cc(NC(=O)c4ccc(C(=O)Nc5ccc6c(O)c(N=Nc7cccc(C(=O)O)c7)c(S(=O)(=O)O)cc6c5)cc4)ccc3c2O)c1 [Compound 170] — lower, 0.1%
- COc1ccc(N=Nc2c(S(=O)(=O)O)cc3cc(NC(=O)c4ccc(C(=O)Nc5ccc6c(O)c(N=Nc7ccc(OC)cc7)c(S(=O)(=O)O)cc6c5)cc4)ccc3c2O)cc1 [Compound 176] — lower, 60%
- O=C(O)CC(C(=O)O)c1ccc(N=Nc2c(S(=O)(=O)O)cc3cc(NC(=O)c4ccc(C(=O)Nc5ccc6c(O)c(N=Nc7ccc(C(CC(=O)O)C(=O)O)cc7)c(S(=O)(=O)O)cc6c5)cc4)ccc3c2O)cc1 (stereo not shown) [Compound 166] — lower, 0.14%
- COc1cc(C(=O)O)ccc1N=Nc1c(S(=O)(=O)O)cc2cc(Nc3c(Nc4ccc5c(O)c(N=Nc6ccc(C(=O)O)cc6OC)c(S(=O)(=O)O)cc5c4)c(=O)c3=O)ccc2c1O [Compound 193] — lower, 0.4%

same assay, conditions: read-out: IC50 (RT activity)

Point of comparison: `O=C(Nc1ccc2c(O)c(N=Nc3ccc(-c4nnn[nH]4)cc3)c(S(=O)(=O)O)cc2c1)Nc1ccc2c(O)c(N=Nc3ccc(-c4nnn[nH]4)cc3)c(S(=O)(=O)O)cc2c1` [Compound 159], IC50 0.22 µM. Against it:
- O=C(O)/C=C/c1ccc(N=Nc2c(S(=O)(=O)O)cc3ccc(NC(=O)Nc4ccc5cc(S(=O)(=O)O)c(N=Nc6ccc(/C=C/C(=O)O)cc6)c(O)c5c4)cc3c2O)cc1 [Compound 86] — 5.5-fold higher, 1.2 µM
